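At the GI50, growth is halved. At the TGI there is no net growth.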
Tests used:
Experiment in all cases: NCI tumour cell line growth inhibition, 384-well format
MDA-MB-435 melanoma = test system: MDA-MB-435 melanoma
TK-10 renal = test system: TK-10 renal
ACHN renal = test system: ACHN renal
LOX IMVI melanoma = test system: LOX IMVI melanoma
UACC-62 melanoma = test system: UACC-62 melanoma
MDA-MB-231 breast = test system: MDA-MB-231 breast
SK-MEL-28 melanoma = test system: SK-MEL-28 melanoma
HOP-62 NSCLC = test system: HOP-62 NSCLC
SW-620 colon = test system: SW-620 colon
CCRF-CEM leukemia = test system: CCRF-CEM leukemia
PC-3 prostate = test system: PC-3 prostate
DU-145 prostate = test system: DU-145 prostate
MALME-3M melanoma = test system: MALME-3M melanoma
NCI-H322M lung = test system: NCI-H322M lung
NCI/ADR-RES ovarian = test system: NCI/ADR-RES ovarian
A549 NSCLC = test system: A549 NSCLC
K-562 leukemia = test system: K-562 leukemia
786-0 renal = test system: 786-0 renal
HOP-92 NSCLC = test system: HOP-92 NSCLC
SNB-19 CNS = test system: SNB-19 CNS
HCT-15 colon = test system: HCT-15 colon
OVCAR-5 ovarian = test system: OVCAR-5 ovarian
OVCAR-4 ovarian = test system: OVCAR-4 ovarian
SN12C renal = test system: SN12C renal
U251 glioblastoma = test system: U251 glioblastoma
MCF7 breast = test system: MCF7 breast
A498 renal = test system: A498 renal

**Q.** With `COc1cc([C@@H]2c3cc4c(cc3[C@@H](OC3OC5CO[C@@H](c6cccs6)OC5C(O)C3O)[C@H]3COC(=O)[C@H]23)OCO4)cc(OC)c1O` (some centres not stated) as the molecule, how does the GI50 (MDA-MB-435 melanoma) read?
**A.** 756 nM

**Q.** What about the TGI (MDA-MB-435 melanoma) of the same molecule?
**A.** 2430 nM

**Q.** What about the GI50 (TK-10 renal) of the same molecule?
**A.** 825 nM

**Q.** What about the TGI (TK-10 renal) of the same molecule?
**A.** 2240 nM

**Q.** And the GI50 (ACHN renal)?
**A.** 296 nM

**Q.** What about the TGI (ACHN renal) of the same molecule?
**A.** 1710 nM

**Q.** And the GI50 (LOX IMVI melanoma)?
**A.** 169 nM

**Q.** What about the TGI (LOX IMVI melanoma) of the same molecule?
**A.** 1570 nM

**Q.** What about the GI50 (UACC-62 melanoma) of the same molecule?
**A.** 103 nM

**Q.** And the TGI (UACC-62 melanoma)?
**A.** 1800 nM

**Q.** And the GI50 (MDA-MB-231 breast)?
**A.** 171 nM

**Q.** And the TGI (MDA-MB-231 breast)?
**A.** 599 nM

**Q.** And the GI50 (SK-MEL-28 melanoma)?
**A.** 321 nM

**Q.** What about the TGI (SK-MEL-28 melanoma) of the same molecule?
**A.** 1970 nM

**Q.** What about the GI50 (HOP-62 NSCLC) of the same molecule?
**A.** 74.1 nM

**Q.** What about the TGI (HOP-62 NSCLC) of the same molecule?
**A.** 267 nM

**Q.** And the GI50 (SW-620 colon)?
**A.** 44.9 nM

**Q.** What about the TGI (SW-620 colon) of the same molecule?
**A.** 1350 nM

**Q.** And the TGI (CCRF-CEM leukemia)?
**A.** 21.9 nM

**Q.** And the GI50 (PC-3 prostate)?
**A.** 1390 nM

**Q.** What about the TGI (PC-3 prostate) of the same molecule?
**A.** 5760 nM

**Q.** What about the GI50 (DU-145 prostate) of the same molecule?
**A.** 212 nM

**Q.** And the TGI (DU-145 prostate)?
**A.** 1210 nM

**Q.** What about the GI50 (MALME-3M melanoma) of the same molecule?
**A.** 671 nM

**Q.** What about the TGI (MALME-3M melanoma) of the same molecule?
**A.** 3970 nM

**Q.** And the GI50 (NCI-H322M lung)?
**A.** 3250 nM

**Q.** What about the TGI (NCI-H322M lung) of the same molecule?
**A.** 14300 nM

**Q.** And the GI50 (NCI/ADR-RES ovarian)?
**A.** 63700 nM

**Q.** What about the TGI (NCI/ADR-RES ovarian) of the same molecule?
**A.** > 100000 nM

**Q.** What about the GI50 (A549 NSCLC) of the same molecule?
**A.** 173 nM

**Q.** What about the TGI (A549 NSCLC) of the same molecule?
**A.** 4080 nM

**Q.** What about the GI50 (K-562 leukemia) of the same molecule?
**A.** 154 nM

**Q.** And the TGI (K-562 leukemia)?
**A.** 1420 nM

**Q.** What about the GI50 ([…]-0 renal) of the same molecule?
**A.** 197 nM

**Q.** And the TGI (786-0 renal)?
**A.** 1180 nM

**Q.** What about the GI50 (HOP-92 NSCLC) of the same molecule?
**A.** 321 nM

**Q.** What about the TGI (HOP-92 NSCLC) of the same molecule?
**A.** 8750 nM

**Q.** And the GI50 (SNB-19 CNS)?
**A.** 219 nM

**Q.** And the TGI (SNB-19 CNS)?
**A.** > 100000 nM

**Q.** And the GI50 (HCT-15 colon)?
**A.** 170 nM

**Q.** What about the TGI (HCT-15 colon) of the same molecule?
**A.** 1390 nM

**Q.** And the GI50 (OVCAR-5 ovarian)?
**A.** 395 nM

**Q.** And the TGI (OVCAR-5 ovarian)?
**A.** 2410 nM

**Q.** What about the GI50 (OVCAR-4 ovarian) of the same molecule?
**A.** 3420 nM

**Q.** What about the TGI (OVCAR-4 ovarian) of the same molecule?
**A.** 17400 nM

**Q.** And the GI50 (SN12C renal)?
**A.** 139 nM

**Q.** What about the TGI (SN12C renal) of the same molecule?
**A.** 665 nM

**Q.** And the GI50 (U251 glioblastoma)?
**A.** 67.4 nM

**Q.** What about the TGI (U251 glioblastoma) of the same molecule?
**A.** 1200 nM

**Q.** What about the GI50 (MCF7 breast) of the same molecule?
**A.** 82.8 nM

**Q.** And the TGI (MCF7 breast)?
**A.** 12200 nM

**Q.** And the GI50 (A498 renal)?
**A.** 206 nM
